{"source": "ChEMBL document CHEMBL4265916", "about": "“Synthesis and antiproliferative activities of novel quartenary ammonium spinosyn derivatives” (Bioorg Med Chem Lett, 2018)", "key": {"MCF7 [1]": {"test_system": "MCF7", "assay": "Antiproliferative activity against human MCF7 cells at 50 uM after 48 hrs by MTT assay", "type": "functional"}, "MCF7 [2]": {"test_system": "MCF7", "assay": "Antiproliferative activity against human MCF7 cells after 48 hrs by MTT assay", "type": "functional, cell-based", "details": "MCF7, 48 h"}, "HCT-116": {"test_system": "HCT-116", "assay": "Antiproliferative activity against human HCT116 cells after 48 hrs by MTT assay", "type": "functional, cell-based", "details": "HCT-116, 48 h"}, "NCI-H460 [3]": {"test_system": "NCI-H460", "assay": "Antiproliferative activity against human NCI-H460 cells after 48 hrs by MTT assay", "type": "functional, cell-based", "details": "NCI-H460, 48 h"}, "U-87 MG": {"test_system": "U-87 MG", "assay": "Antiproliferative activity against human U87MG cells after 48 hrs by MTT assay", "type": "functional, cell-based, U-87MG ATCC"}, "NCI-H460 [4]": {"test_system": "NCI-H460", "assay": "Induction of apoptosis in human NCI-H460 cells assessed as necrotic cells at 32 uM after 48 hrs by Annexin V-FITC/propidium iodide staining-based flow cytometric analysis (reference value: 2.11%)", "type": "functional"}, "NCI-H460 [5]": {"test_system": "NCI-H460", "assay": "Induction of apoptosis in human NCI-H460 cells assessed as late apoptotic cells at 32 uM after 48 hrs by Annexin V-FITC/propidium iodide staining-based flow cytometric analysis (reference value: 1.80%)", "type": "functional"}, "NCI-H460 [6]": {"test_system": "NCI-H460", "assay": "Induction of apoptosis in human NCI-H460 cells assessed as early apoptotic cells at 32 uM after 48 hrs by Annexin V-FITC/propidium iodide staining-based flow cytometric analysis (reference value: 2.17%)", "type": "functional"}, "NCI-H460 [7]": {"test_system": "NCI-H460", "assay": "Induction of apoptosis in human NCI-H460 cells assessed as viable cells at 32 uM after 48 hrs by Annexin V-FITC/propidium iodide staining-based flow cytometric analysis (reference value: 93.9%)", "type": "functional", "details": "NCI-H460, 48 h, read-out: Activity"}, "NCI-H460 [8]": {"test_system": "NCI-H460", "assay": "Induction of apoptosis in human NCI-H460 cells assessed as necrotic cells at 64 uM after 48 hrs by Annexin V-FITC/propidium iodide staining-based flow cytometric analysis (reference value: 2.11%)", "type": "functional"}, "NCI-H460 [9]": {"test_system": "NCI-H460", "assay": "Induction of apoptosis in human NCI-H460 cells assessed as late apoptotic cells at 64 uM after 48 hrs by Annexin V-FITC/propidium iodide staining-based flow cytometric analysis (reference value: 1.80%)", "type": "functional"}, "NCI-H460 [10]": {"test_system": "NCI-H460", "assay": "Induction of apoptosis in human NCI-H460 cells assessed as early apoptotic cells at 64 uM after 48 hrs by Annexin V-FITC/propidium iodide staining-based flow cytometric analysis (reference value: 2.17%)", "type": "functional"}, "NCI-H460 [11]": {"test_system": "NCI-H460", "assay": "Induction of apoptosis in human NCI-H460 cells assessed as viable cells at 64 uM after 48 hrs by Annexin V-FITC/propidium iodide staining-based flow cytometric analysis (reference value: 93.9%)", "type": "functional", "details": "NCI-H460, 48 h, read-out: Activity"}, "NCI-H460 [12]": {"test_system": "NCI-H460", "assay": "Inhibition of oxygen consumption rate in human NCI-H460 cells at 32 uM after 1 hr", "type": "functional"}, "NCI-H460 [13]": {"test_system": "NCI-H460", "assay": "Growth inhibition of human NCI-H460 cells at 32 uM after 48 hrs by MTT assay", "type": "functional, cell-based"}, "NCI-H460 [14]": {"test_system": "NCI-H460", "assay": "Induction of apoptosis in human NCI-H460 cells after 48 hrs by Annexin V-FITC/propidium iodide staining-based flow cytometric analysis", "type": "functional, cell-based"}}, "note": "Calls of active or inactive are those of the source. No cut-off for these calls is given here."}
{"smiles": "CC[C@H]1CCC[C@H](O[C@H]2CC[C@H](N(C)C)[C@@H](C)O2)[C@@H](C)C(=O)C2=C[C@@H]3[C@@H](C=C[C@@H]4C[C@@H](O[C@@H]5O[C@@H](C)[C@H](OC)[C@@H](OC)[C@H]5OC)C[C@@H]34)[C@@H]2CC(=O)O1", "note": "[SPINOSYN A]", "values": [{"measurement": "Activity", "setting": "MCF7 [1]", "value": 92.6, "unit": "%"}, {"measurement": "IC50", "setting": "MCF7 [2]", "value": 16.7, "unit": "µM"}, {"measurement": "IC50", "setting": "HCT-116", "value": 10.7, "unit": "µM"}, {"measurement": "IC50", "setting": "NCI-H460 [3]", "value": 66, "unit": "µM"}, {"measurement": "IC50", "setting": "U-87 MG", "value": 104, "unit": "µM"}, {"measurement": "Activity", "setting": "NCI-H460 [4]", "value": 1.69, "unit": "%"}, {"measurement": "Activity", "setting": "NCI-H460 [5]", "value": 4.41, "unit": "%"}, {"measurement": "Activity", "setting": "NCI-H460 [6]", "value": 3.11, "unit": "%"}, {"measurement": "viability at 32 µM", "setting": "NCI-H460 [7]", "value": 90.8, "unit": "%"}, {"measurement": "Activity", "setting": "NCI-H460 [8]", "value": 2.33, "unit": "%"}, {"measurement": "Activity", "setting": "NCI-H460 [9]", "value": 5.33, "unit": "%"}, {"measurement": "Activity", "setting": "NCI-H460 [10]", "value": 4.53, "unit": "%"}, {"measurement": "viability at 64 µM", "setting": "NCI-H460 [11]", "value": 87.8, "unit": "%"}, {"measurement": "inhibition", "setting": "NCI-H460 [12]", "value": "Active"}, {"measurement": "growth inhibition (GI)", "setting": "NCI-H460 [13]", "value": "inactive"}, {"measurement": "Activity", "setting": "NCI-H460 [14]", "value": "Dose-dependent effect"}]}
